Values after ≈ are worked out from the molar mass of the structure shown.
Assays:
[1] = target: Phosphatidylinositol 4,5-bisphosphate 3-kinase catalytic subunit beta isoform (Homo sapiens, UniProt P42338); assay: Inhibition of PI3Kbeta (unknown origin) using biotin-PIP3 as substrate preincubated for 15 mins followed by substrate addition and measured after 60 mins by fluorescence polarization assay
[2] = target: Albumin (Homo sapiens, UniProt P02768); assay: Binding affinity to human serum albumin by HPLC analysis; format: ADME; conditions: isolated protein
Chain of Albumin (P02768 whole entry): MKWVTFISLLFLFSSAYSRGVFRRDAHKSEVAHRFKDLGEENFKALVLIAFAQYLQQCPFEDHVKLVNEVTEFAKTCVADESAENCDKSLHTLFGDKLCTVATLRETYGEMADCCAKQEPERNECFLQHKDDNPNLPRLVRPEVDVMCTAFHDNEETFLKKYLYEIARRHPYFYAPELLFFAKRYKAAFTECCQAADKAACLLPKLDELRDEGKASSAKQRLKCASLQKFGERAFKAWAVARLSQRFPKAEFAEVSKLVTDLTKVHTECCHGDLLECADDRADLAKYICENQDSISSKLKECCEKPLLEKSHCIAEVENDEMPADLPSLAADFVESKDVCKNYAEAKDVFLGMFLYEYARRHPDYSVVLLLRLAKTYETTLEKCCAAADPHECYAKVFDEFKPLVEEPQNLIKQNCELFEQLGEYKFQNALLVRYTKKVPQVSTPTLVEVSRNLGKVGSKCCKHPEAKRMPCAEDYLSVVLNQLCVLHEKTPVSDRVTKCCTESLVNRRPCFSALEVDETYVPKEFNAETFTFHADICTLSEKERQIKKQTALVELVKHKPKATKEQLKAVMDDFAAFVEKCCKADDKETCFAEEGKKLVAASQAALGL

[3] = Solubility of compound by CLND method; format: physicochemical
[4] = Lipophilicity, logD of compound at pH 7.4 by HPLC-MS analysis; conditions: buffer
[5] = target: Phosphatidylinositol 4,5-bisphosphate 3-kinase catalytic subunit alpha isoform (Homo sapiens, UniProt P42336)
Chain of Phosphatidylinositol 4,5-bisphosphate 3-kinase catalytic subunit alpha isoform (P42336 whole entry, canonical isoform): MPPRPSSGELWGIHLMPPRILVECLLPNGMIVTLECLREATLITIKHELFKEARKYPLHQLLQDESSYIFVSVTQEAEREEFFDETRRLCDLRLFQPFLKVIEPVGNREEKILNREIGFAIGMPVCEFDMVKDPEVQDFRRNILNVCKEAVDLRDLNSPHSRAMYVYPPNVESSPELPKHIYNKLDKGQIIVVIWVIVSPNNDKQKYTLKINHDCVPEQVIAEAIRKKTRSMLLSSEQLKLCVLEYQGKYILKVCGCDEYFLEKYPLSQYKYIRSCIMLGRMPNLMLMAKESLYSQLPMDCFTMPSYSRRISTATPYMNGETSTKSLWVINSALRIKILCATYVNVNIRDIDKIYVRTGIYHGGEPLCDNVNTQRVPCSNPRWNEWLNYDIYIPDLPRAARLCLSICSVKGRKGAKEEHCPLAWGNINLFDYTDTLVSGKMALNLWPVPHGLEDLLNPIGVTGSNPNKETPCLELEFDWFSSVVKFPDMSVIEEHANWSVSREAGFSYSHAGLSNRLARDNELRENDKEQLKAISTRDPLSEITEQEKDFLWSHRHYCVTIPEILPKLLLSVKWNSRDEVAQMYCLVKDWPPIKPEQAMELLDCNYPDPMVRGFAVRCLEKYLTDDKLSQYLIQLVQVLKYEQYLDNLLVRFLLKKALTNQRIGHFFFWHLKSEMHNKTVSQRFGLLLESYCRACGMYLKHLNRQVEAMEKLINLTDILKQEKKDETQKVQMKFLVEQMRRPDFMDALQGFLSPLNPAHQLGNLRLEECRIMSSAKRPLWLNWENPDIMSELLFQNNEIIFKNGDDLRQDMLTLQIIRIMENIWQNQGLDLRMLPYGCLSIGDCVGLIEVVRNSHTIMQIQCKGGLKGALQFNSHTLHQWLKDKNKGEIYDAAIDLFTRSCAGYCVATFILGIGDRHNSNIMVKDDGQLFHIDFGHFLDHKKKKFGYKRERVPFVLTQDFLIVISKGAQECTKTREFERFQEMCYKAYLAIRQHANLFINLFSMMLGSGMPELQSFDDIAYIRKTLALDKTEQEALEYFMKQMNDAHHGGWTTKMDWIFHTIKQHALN
Description: Inhibition of PI3Kalpha (unknown origin) using biotin-PIP3 as substrate preincubated for 15 mins followed by substrate addition and measured after 60 mins by fluorescence polarization assay

[6] = target: T1, Phosphatidylinositol 4,5-bisphosphate 3-kinase catalytic subunit delta isoform (Homo sapiens, UniProt O00329)
T1 sequence (O00329 whole entry): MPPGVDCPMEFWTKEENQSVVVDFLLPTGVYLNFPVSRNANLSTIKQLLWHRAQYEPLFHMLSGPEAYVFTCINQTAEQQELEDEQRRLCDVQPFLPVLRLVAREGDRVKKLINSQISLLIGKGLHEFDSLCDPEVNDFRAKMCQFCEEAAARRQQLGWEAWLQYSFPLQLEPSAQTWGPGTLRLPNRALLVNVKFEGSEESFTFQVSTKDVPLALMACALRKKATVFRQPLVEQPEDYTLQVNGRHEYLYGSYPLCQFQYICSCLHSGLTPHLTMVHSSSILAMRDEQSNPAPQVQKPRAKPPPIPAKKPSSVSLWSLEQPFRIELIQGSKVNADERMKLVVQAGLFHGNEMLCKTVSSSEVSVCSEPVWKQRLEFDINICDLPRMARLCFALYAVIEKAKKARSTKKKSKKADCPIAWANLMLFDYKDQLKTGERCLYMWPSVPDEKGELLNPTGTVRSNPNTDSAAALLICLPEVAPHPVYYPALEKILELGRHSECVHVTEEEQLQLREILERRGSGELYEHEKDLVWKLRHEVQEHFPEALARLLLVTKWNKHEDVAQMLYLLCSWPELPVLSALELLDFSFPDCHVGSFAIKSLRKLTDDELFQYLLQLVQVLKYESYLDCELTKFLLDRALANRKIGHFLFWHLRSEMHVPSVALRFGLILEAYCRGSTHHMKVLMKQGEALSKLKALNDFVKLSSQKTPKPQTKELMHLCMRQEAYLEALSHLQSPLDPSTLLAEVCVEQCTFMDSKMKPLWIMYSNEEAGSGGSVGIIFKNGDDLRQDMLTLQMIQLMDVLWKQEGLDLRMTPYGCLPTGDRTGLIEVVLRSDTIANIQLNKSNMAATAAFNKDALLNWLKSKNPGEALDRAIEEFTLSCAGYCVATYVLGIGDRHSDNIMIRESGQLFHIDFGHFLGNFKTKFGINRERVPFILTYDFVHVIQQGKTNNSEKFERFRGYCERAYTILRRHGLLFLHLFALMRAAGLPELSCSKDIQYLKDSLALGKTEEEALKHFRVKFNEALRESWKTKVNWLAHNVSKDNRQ
Description: Inhibition of PI3Kdelta (unknown origin) using biotin-PIP3 as substrate preincubated for 15 mins followed by substrate addition and measured after 60 mins by fluorescence polarization assay

[7] = target: Phosphatidylinositol 4,5-bisphosphate 3-kinase catalytic subunit gamma isoform (Homo sapiens, UniProt P48736)
Chain of Phosphatidylinositol 4,5-bisphosphate 3-kinase catalytic subunit gamma isoform (P48736 whole entry, canonical isoform): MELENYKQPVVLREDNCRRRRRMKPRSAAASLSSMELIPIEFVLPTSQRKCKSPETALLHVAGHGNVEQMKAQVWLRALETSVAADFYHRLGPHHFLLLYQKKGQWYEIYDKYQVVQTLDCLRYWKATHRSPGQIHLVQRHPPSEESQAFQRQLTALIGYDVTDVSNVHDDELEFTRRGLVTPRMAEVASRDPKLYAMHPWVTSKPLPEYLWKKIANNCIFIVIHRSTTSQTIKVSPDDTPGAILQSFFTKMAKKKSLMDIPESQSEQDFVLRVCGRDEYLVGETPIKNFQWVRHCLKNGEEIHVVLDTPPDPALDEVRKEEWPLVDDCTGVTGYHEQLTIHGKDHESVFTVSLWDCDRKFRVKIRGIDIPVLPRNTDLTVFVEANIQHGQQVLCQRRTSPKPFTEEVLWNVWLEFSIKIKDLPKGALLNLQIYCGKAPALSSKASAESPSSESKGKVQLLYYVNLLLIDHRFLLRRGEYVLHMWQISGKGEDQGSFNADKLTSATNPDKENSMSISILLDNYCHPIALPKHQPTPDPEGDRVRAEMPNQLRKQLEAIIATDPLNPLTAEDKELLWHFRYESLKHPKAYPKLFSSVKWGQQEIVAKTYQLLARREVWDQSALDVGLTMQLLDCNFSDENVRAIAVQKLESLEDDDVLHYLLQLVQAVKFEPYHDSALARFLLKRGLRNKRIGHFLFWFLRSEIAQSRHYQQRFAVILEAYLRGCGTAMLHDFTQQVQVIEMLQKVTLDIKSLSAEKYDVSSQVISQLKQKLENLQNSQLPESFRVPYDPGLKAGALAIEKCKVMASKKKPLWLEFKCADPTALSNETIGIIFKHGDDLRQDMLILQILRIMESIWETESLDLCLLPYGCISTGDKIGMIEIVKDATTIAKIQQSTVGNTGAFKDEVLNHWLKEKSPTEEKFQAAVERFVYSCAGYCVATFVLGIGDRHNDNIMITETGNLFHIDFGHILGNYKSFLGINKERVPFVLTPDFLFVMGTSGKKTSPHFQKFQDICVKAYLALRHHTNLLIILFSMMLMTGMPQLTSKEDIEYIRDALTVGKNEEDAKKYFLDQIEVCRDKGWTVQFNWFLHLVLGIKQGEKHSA
Description: Inhibition of PI3Kgamma (unknown origin) using biotin-PIP3 as substrate preincubated for 15 mins followed by substrate addition and measured after 60 mins by fluorescence polarization assay

Chain of Phosphatidylinositol 4,5-bisphosphate 3-kinase catalytic subunit beta isoform (P42338 whole entry, canonical isoform): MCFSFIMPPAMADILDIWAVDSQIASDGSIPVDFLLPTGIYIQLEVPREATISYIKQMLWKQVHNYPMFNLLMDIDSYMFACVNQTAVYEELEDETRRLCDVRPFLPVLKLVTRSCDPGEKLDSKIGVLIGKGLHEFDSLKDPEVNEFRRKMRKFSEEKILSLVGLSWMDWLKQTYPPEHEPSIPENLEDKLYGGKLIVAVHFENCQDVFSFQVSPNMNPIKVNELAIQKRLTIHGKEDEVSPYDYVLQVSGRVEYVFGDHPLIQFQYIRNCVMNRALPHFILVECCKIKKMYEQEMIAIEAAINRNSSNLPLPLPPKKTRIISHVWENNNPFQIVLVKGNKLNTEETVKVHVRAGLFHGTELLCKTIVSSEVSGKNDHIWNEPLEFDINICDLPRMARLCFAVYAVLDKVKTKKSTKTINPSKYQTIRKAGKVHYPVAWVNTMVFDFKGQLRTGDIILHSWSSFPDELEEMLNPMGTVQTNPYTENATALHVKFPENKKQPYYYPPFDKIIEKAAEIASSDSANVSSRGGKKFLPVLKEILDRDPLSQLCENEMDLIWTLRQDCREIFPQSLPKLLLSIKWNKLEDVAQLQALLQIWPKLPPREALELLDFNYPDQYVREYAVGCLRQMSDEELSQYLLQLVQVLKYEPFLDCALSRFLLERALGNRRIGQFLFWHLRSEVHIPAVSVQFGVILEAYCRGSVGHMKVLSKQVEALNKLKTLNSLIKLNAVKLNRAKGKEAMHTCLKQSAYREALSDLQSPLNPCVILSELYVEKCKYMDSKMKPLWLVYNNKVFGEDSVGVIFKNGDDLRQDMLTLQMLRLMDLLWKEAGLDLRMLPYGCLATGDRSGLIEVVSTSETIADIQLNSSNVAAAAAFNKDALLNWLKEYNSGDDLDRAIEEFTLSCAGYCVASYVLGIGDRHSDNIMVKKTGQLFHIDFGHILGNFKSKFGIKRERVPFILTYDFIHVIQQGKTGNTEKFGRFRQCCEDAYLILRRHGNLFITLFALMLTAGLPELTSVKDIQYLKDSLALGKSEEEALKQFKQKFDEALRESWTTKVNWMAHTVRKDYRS

Compound | IC50 [1] | Activity [2] | solubility kinetic [3] | logD [4] | IC50 [5] | IC50 [6] | IC50 [7]
COCC(=O)N(C)C1CCCN(Cc2cc3nc(-c4cccc5[nH]ccc45)nc(N4CCOCC4)c3s2)C1 (racemic) | 3160 nM | 95.2% | 85 µM (≈ 45.4 µg/mL) | 4.8 | 3160 nM | 20 nM | 2000 nM
CN(C1CCCN(Cc2cc3nc(-c4cccc5[nH]ccc45)nc(N4CCOCC4)c3s2)C1)S(C)(=O)=O (racemic) | 1580 nM | 95.6% | – | 5.5 | 794 nM | 6.31 nM | 501 nM
CC(=O)N(C)C1CCN(Cc2cc3nc(-c4cccc5[nH]ccc45)nc(N4CCOCC4)c3s2)CC1 | 2000 nM | 94.5% | – | 4.4 | 3160 nM | 12.6 nM | –
COCC(=O)N(C)C1CCCN(Cc2cc3nc(-c4cccc5[nH]ncc45)nc(N4CCOCC4)c3s2)C1 (racemic) | 6310 nM | – | – | 4.3 | 794 nM | 126 nM | 3160 nM
CS(=O)(=O)NC1CCCN(Cc2cc3nc(-c4cccc5[nH]ncc45)nc(N4CCOCC4)c3s2)C1 (racemic) | 7940 nM | – | – | 4.3 | 501 nM | 50.1 nM | 1580 nM
CC(=O)NC1CCCN(Cc2cc3nc(-c4cccc5[nH]ccc45)nc(N4CCOCC4)c3s2)C1 (racemic) | 2510 nM | – | – | 4.5 | 3980 nM | 50.1 nM | 2510 nM
CC(=O)NC1CCCN(Cc2cc3nc(-c4cccc5[nH]ncc45)nc(N4CCOCC4)c3s2)C1 (racemic) | 6310 nM | – | – | 4 | 251 nM | 79.4 nM | 1260 nM
CC(=O)NC1CCN(Cc2cc3nc(-c4cccc5[nH]ncc45)nc(N4CCOCC4)c3s2)C1 (racemic) | 3980 nM | – | – | 3 | 501 nM | 251 nM | 1260 nM
COCC(=O)NC1CCCN(Cc2cc3nc(-c4cccc5[nH]ccc45)nc(N4CCOCC4)c3s2)C1 (racemic) | 6310 nM | – | – | 5 | 2510 nM | 79.4 nM | 2000 nM
CN(C1CCN(Cc2cc3nc(-c4cccc5[nH]ccc45)nc(N4CCOCC4)c3s2)CC1)S(C)(=O)=O | 1260 nM | – | – | 5.2 | 1580 nM | 12.6 nM | 794 nM
CN(C1CCCN(Cc2cc3nc(-c4cccc5[nH]ncc45)nc(N4CCOCC4)c3s2)C1)S(C)(=O)=O (racemic) | 2510 nM | – | – | 4.9 | 200 nM | 20 nM | 794 nM
CS(=O)(=O)NC1CCCN(Cc2cc3nc(-c4cccc5[nH]ccc45)nc(N4CCOCC4)c3s2)C1 (racemic) | 1260 nM | – | – | 5 | 1580 nM | 25.1 nM | 1000 nM
CC(=O)N(C)C1CCCN(Cc2cc3nc(-c4cccc5[nH]ccc45)nc(N4CCOCC4)c3s2)C1 (racemic) | 2510 nM | – | – | 5 | 1580 nM | 25.1 nM | 2510 nM
COCC(=O)N(C)C1CCN(Cc2cc3nc(-c4cccc5[nH]ccc45)nc(N4CCOCC4)c3s2)C1 (racemic) | 2510 nM | 94.1% | 179 µM (≈ 93.2 µg/mL) | – | 3980 nM | 10 nM | 1000 nM
CNC(=O)NC1CCN(Cc2cc3nc(-c4cccc5[nH]ncc45)nc(N4CCOCC4)c3s2)C1 (racemic) | 2510 nM | – | – | 2.9 | 316 nM | 200 nM | 1260 nM
COCC(=O)N(C)C1CCCN(Cc2cc3nc(-c4cnc(N)nc4)nc(N4CCOCC4)c3s2)C1 (racemic) | 1580 nM | – | – | 2.8 | 100 nM | 50.1 nM | 126 nM
CNC(=O)N(C)C1CCCN(Cc2cc3nc(-c4cccc5[nH]ccc45)nc(N4CCOCC4)c3s2)C1 (racemic) | 10000 nM | – | – | 4.5 | 3160 nM | 126 nM | 6310 nM
CC(=O)NC1CCN(Cc2cc3nc(-c4cnc(N)nc4)nc(N4CCOCC4)c3s2)CC1 | 1580 nM | – | – | 2.2 | 126 nM | 100 nM | 158 nM

These reach a lower IC50 [1]. Values come first.

IC50 [1] | Activity [2] | solubility kinetic [3] | logD [4] | IC50 [5] | IC50 [6] | IC50 [7] | Compound
1000 nM | 94.3% | 238 µM (≈ 127 µg/mL) | 4.6 | 10000 nM | 12.6 nM | – | COCC(=O)N(C)C1CCN(Cc2cc3nc(-c4cccc5[nH]ccc45)nc(N4CCOCC4)c3s2)CC1
1000 nM | – | – | 3.5 | 39.8 nM | 5.01 nM | 25.1 nM | CN(C1CCCN(Cc2cc3nc(-c4cnc(N)nc4)nc(N4CCOCC4)c3s2)C1)S(C)(=O)=O (racemic)
1000 nM | – | – | 4.1 | 1580 nM | 100 nM | 2510 nM | COCC(=O)NC1CCN(Cc2cc3nc(-c4cccc5[nH]ccc45)nc(N4CCOCC4)c3s2)C1 (racemic)
1000 nM | – | – | 1.7 | 63.1 nM | 158 nM | 158 nM | CNC(=O)NC1CCN(Cc2cc3nc(-c4cnc(N)nc4)nc(N4CCOCC4)c3s2)C1 (racemic)
631 nM | – | – | 4.4 | 1260 nM | 20 nM | 1000 nM | CS(=O)(=O)NC1CCN(Cc2cc3nc(-c4cccc5[nH]ccc45)nc(N4CCOCC4)c3s2)CC1
631 nM | – | – | 1.9 | 25.1 nM | 39.8 nM | 63.1 nM | CNC(=O)NC1CCN(Cc2cc3nc(-c4cnc(N)nc4)nc(N4CCOCC4)c3s2)CC1
501 nM | 94.4% | 251 µM (≈ 123 µg/mL) | 4.5 | 794 nM | 6.31 nM | 631 nM | CC(=O)N(C)C1CCN(Cc2cc3nc(-c4cccc5[nH]ccc45)nc(N4CCOCC4)c3s2)C1 (racemic)
501 nM | – | – | 1.9 | 31.6 nM | 79.4 nM | 79.4 nM | CC(=O)NC1CCN(Cc2cc3nc(-c4cnc(N)nc4)nc(N4CCOCC4)c3s2)C1 (racemic)
501 nM | – | – | 5.1 | 631 nM | 10 nM | 501 nM | CN(C1CCN(Cc2cc3nc(-c4cccc5[nH]ccc45)nc(N4CCOCC4)c3s2)C1)S(C)(=O)=O (racemic)
398 nM | – | – | 2.4 | 31.6 nM | 25.1 nM | 63.1 nM | CS(=O)(=O)NC1CCN(Cc2cc3nc(-c4cnc(N)nc4)nc(N4CCOCC4)c3s2)CC1
398 nM | – | – | 2.5 | 31.6 nM | 7.94 nM | 25.1 nM | CC(=O)N(C)[C@@H]1CCN(Cc2cc3nc(-c4cnc(N)nc4)nc(N4CCOCC4)c3s2)C1
251 nM | 81.2% | ≥ 2720 µM | 2.7 | 15.8 nM | 6.31 nM | 7.94 nM | COCC(=O)N(C)C1CCN(Cc2cc3nc(-c4cnc(N)nc4)nc(N4CCOCC4)c3s2)C1 (racemic)
251 nM | 87.8% | 118 µM (≈ 61.2 µg/mL) | 3.3 | 15.8 nM | 7.94 nM | 25.1 nM | CN(C1CCN(Cc2cc3nc(-c4cnc(N)nc4)nc(N4CCOCC4)c3s2)CC1)S(C)(=O)=O
158 nM | 80.9% | ≥ 491 µM | 2.4 | 10 nM | 12.6 nM | 20 nM | CS(=O)(=O)NC1CCN(Cc2cc3nc(-c4cnc(N)nc4)nc(N4CCOCC4)c3s2)C1 (racemic)

From ChEMBL document CHEMBL4414631 (J Med Chem, 2019)
